Values of other authors as cited in US9012511B2, “Nanoparticulate cinacalcet compositions” (Alkermes Pharma Ireland Limited, priority 2010, dated 2015).
Where two headings read alike, the source gives them in different places.

How the values were obtained:
[1] = fasted subjects; estimated

## C[C@@H](NCCCc1cccc(C(F)(F)F)c1)c1cccc2ccccc12.Cl [Cinacalcet HCl, Cinacalcet hydrochloride]
[1]
  absolute bioavailability: 20-25%
Fasting subjects
  mean tmax: 6 h
high-fat fed subjects
  mean tmax: 4 h
low-fat fed subjects
  mean tmax: 3.5 h
Single oral dose 90 mg
  difference in mean AUC∞ between high- and low-fat meals: 12 (9.9-26) %
Single oral dose 90 mg, high-fat, high-caloric meal
  mean (90% confidence intervals) AUC[infinity] increase relative to fasting: 68 (48 to 89) %
Single oral dose 90 mg, low-fat, low-caloric meal
  mean (90% confidence intervals) AUC[infinity] increase relative to fasting: 50 (33 to 70) %
